From paper PMC9260081, “Design, Synthesis, and Evaluation of Anticonvulsant Activities of New Triazolopyrimidine Derivatives” (Frontiers in Chemistry, 2022)
Like-named read-outs stand apart in the source and are kept apart here. Marks after values point to notes of the source that are not given here.

Legend:
MES-induced seizures = test: Maximal electroshock seizure (MES) test; type: in vivo, mice; details: for minimal effective dose: dosages 30, 100, 300 mg/kg, read-out: MES screening, minimum dose whereby bioactivity was demonstrated in half or more of the mice
Method: (§1) Male Kunming mice with weights from 18 to 22 g were used in all the pharmacological experiments. The mice were housed in the standard cages with 10 each, where a controlled temperature (25°C ± 2°C) with a 12 h light/dark cycle was maintained. All animals had free access to food and water. All experiments and procedures involving animals were carried out according to the Guide for the Care and Use of Laboratory Animals (National Academies Press, Washington, D.C., United States). Approval from the local medical ethical committee was obtained before the experiment.
In the MES test, mice were subjected to ear stimulation using a 0.2 s 60-Hz 50-mA alternating current to elicit seizures. Tonic hind limb extension was considered as the seizure occurring, and the vanishing of tonic hind limb extension indicates the protection against the MES-induced seizures. Mice were injected intraperitoneally with test compounds at doses of 300, 100, and 30 mg/kg to evaluate their general anticonvulsant activity. Half and 4 h intervals were chosen to test the anti-MES activity. […] A series of doses of the tested compounds were injected into the mice with 10 in one group.

PTZ-induced seizures = test: Subcutaneous pentylenetetrazole (PTZ) test; type: in vivo, mice; details: ip; for minimal effective dose: dosages 30, 100, 300 mg/kg, read-out: PTZ screening, minimum dose whereby bioactivity was demonstrated in half or more of the mice
Method: as §1
In the PTZ test, mice were subcutaneously administered with PTZ at the dose of 85 mg/kg. At this dose, mice can be elicited a threshold seizure characterized by an episode of clonic spasms and tonic spasms. After being treated with test compounds at doses of 300, 100, and 30 mg/kg, the mice were considered protected if a single episode of clonic spasms of more than 5 s duration was not obtained. The quantitative anticonvulsant activity (ED50) in the PTZ model was determined and calculated with the same method described in the MES test.

[1] = system: ability to maintain equilibrium on rotating rod; test: Neurotoxicity screening (rotarod test); type: in vivo; details: i.p., dosages 30, 100, 300 mg/kg
Method: as §1
(§2) The rotarod test was used to evaluate the neurotoxicity of the synthesized compounds. Before the formal experiments, mice were trained to climb on a rotating rod of diameter 3.2 cm with the rotation speed of 10 rpm. Test compounds in the three doses were intraperitoneally injected into the trained mice. […] The rough neurotoxic dose was obtained in which mice cannot maintain equilibrium on the rod for at least 1 min. The quantitative neurotoxic dose (TD50) of the test compounds was measured and calculated with the same method described in the MES test.

[2] = Neurotoxicity screening (rotarod test); type: in vivo; details: male, Kunming, mouse, in vivo, ip; rotarod, mice; 95% confidence interval in brackets
Method: as §1, §2

3-MP-induced seizures = test: 3-Mercaptopropionic acid (3-MP)-induced seizure test; type: in vivo; details: 3-MP 60 mg/kg; compound 30 mg/kg, test time 0.5 h; percentage of animals, 10 mice
Method: as §1
(§3) In 3-MP–induced seizure test, groups of 10 mice were administered with 30 mg/kg of test samples or vehicle. After 30 min, the minimum dose of 3-MP (60 mg/kg) that could completely induce seizures for mice was intraperitoneally injected into the test mice. The mice were placed into separate cages each, and the number of clonic seizures, tonic seizures, and mortality was recorded for 30 min.

BIC-induced seizures = test: Bicuculline (BIC)-induced seizure test; type: in vivo; details: BIC 5.4 mg/kg, compound 30 mg/kg, test time 0.5 h, percentage of animals, 10 mice
Method: as §1
as §3, with “the BIC-induced” for “3-MP–induced”, “Then,” for “After”, “min later,” for “min,”, “BIC (5.4” for “3-MP (60”, “subcutaneously” for “intraperitoneally”

[3] = Mus musculus, ip, mice, 0.5 h after injection
[4] = Mus musculus, ip, mice, 4 h after injection
[5] = Mus musculus, mice, 0.5 h after injection
[6] = Mus musculus, mice, 4 h after injection

Row | SMILES | minimal effective dose (MES-induced seizures; [3]) [mg/kg] | minimal effective dose (MES-induced seizures; [4]) [mg/kg] | minimal effective dose (PTZ-induced seizures; [5]) [mg/kg] | minimal effective dose (PTZ-induced seizures; [6]) [mg/kg] | NT screening (rotarod), minimum neurotoxic dose in half or more of the mice ([1]; 0.5 h after injection) | NT screening (rotarod), minimum neurotoxic dose in half or more of the mice ([1]; 4 h after injection) | melting point [°C] | ED50 (MES-induced seizures; Mus musculus, ip, mice, 95% confidence interval in brackets, read-out: ED50 MES) [mg/kg] | PI MES, protective index (TD50/ED50) (MES-induced seizures; TD50 rotarod / ED50 MES, mice i.p.) | ED50 (PTZ-induced seizures; Mus musculus, mice, 95% confidence interval in brackets, read-out: ED50 scPTZ) [mg/kg] | PI scPTZ, protective index (TD50/ED50) (PTZ-induced seizures; male, Kunming, mouse, in vivo) | TD50 at 30 min [2] [mg/kg] | Clonic seizure (%) (3-MP-induced seizures) | Lethality (%) (3-MP-induced seizures) | Tonic seizure (%) (3-MP-induced seizures) | Clonic seizure (%) (BIC-induced seizures) | Lethality (%) (BIC-induced seizures) | Tonic seizure (%) (BIC-induced seizures) | Lethality (%) (BIC-induced seizures; listed as carbamazepine) | Tonic seizure (%) (BIC-induced seizures; listed as carbamazepine)
1 | c1ccc(-c2ccnc3ncnn23)cc1 [Compound 3a, 7-Phenyl-[1,2,4]triazolo[1,5-a]pyrimidine] | 300 | > 300 | 100 | > 300 | — (A dash indicates the absence of anticonvulsant activity and neurotoxicity at the maximum dose administered (300 mg/kg)) | — (A dash indicates the absence of anticonvulsant activity and neurotoxicity at the maximum dose administered (300 mg/kg)) | 142 to 143 |  |  |  |  |  |  |  |  |  |  |  |  | 
2 | NC(=O)N1c2ccccc2C=Cc2ccccc21 [Carbamazepine, reference compound] |  |  |  |  |  |  |  | 9.8 | 4.5 | > 100 | <0.44 | 44 | 100 | 0** % | 0*** % | 100 | 20** % | 0*** % | significantly inhibited | significantly inhibited
3 | Clc1ccccc1-c1ccnc2ncnn12 [Compound 3c, 7-(2-Chlorophenyl)-[1,2,4]triazolo[1,5-a]pyrimidine] | 100 | > 300 | 100 | > 300 | — (A dash indicates the absence of anticonvulsant activity and neurotoxicity at the maximum dose administered (300 mg/kg)) | — (A dash indicates the absence of anticonvulsant activity and neurotoxicity at the maximum dose administered (300 mg/kg)) | 148 to 149 |  |  |  |  |  |  |  |  |  |  |  |  | 
